Assay results: PMC10447463, “Data-mining unveils structure–property–activity correlation of viral infectivity enhancing self-assembling peptides” (Nature Communications, 2023)
Like-named read-outs stand apart in the source and are kept apart here.

Legend:
[1] = Conversion rate (CR) assay with fluorescamine; format: physicochemical
How it was run: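 Conversion rate: fluorescamine fluorescence (ex 365/em 470 nm, 20 min RT) of 3 kDa filtrate versus unfiltered PNF, CR = 100 − 100 × filtrate/original intensity, triplicates. β-sheet content came from ATR FT-IR of lyophilized 1 mg/mL PNF powder, 64 scans.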

[2] = ref sieste 2021 or Schilling2019, cited from earlier work
Description: Supplement 41467_2023_40663_MOESM7_ESM.zip/FigS17.csv, table | column: Conversion Rate / % ( from sieste 2021 or Schilling2019)

[3] = Zeta-potential measurement; format: physicochemical; conditions: for Zeta-pot. / mV: zeta potential of peptide, Fig S15 source data
How it was run: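 In this measurement, peptides aggregated for a day at RT in phosphate-buffered saline (pH 7.4, 1 mg/mL) are diluted into 1 mM potassium chloride, and the electrophoretic mobility is translated into zeta potential by Smoluchowski's relation.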

[4] = Turbidity, derived count rate of scattered light; format: physicochemical; conditions: for Log Count Rate: log of derived count rate; for Count Rate: turbidity
How it was run: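 Samples: 1 mg/mL in PBS pH 7.4 (from DMSO), 1 d at RT, then diluted in 1 mM KCl immediately before measurement. Triplicates, two independent runs averaged.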

[5] = previously reported peptides only
[6] = Fig S8 panels A, C, asymmetric log errors
[7] = Fig S8 panels B, D, derived count rate of scattered light
[8] = category 1 or 0 from count rate, key not given
[9] = derived count rate from zeta measurement, mean
[10] = derived count rate of scattered light
[11] = derived count rate of scattered light, mean, std deviation in next column
[12] = derived count rate of scattered light, mean, std deviation in separate column

Substance	Conversion Rate / % [1] [%]	Conversion Rate / % ([1]; fluorescamine assay) [%]	Zeta category ( +1 = if > 4 mV;-1 = if < -4 mV; 0 = -4mV to 4 mV) [3]	Zeta category ( +1 = if > 4 mV;-1 = if < -4 mV; 0 = -4mV to 4 mV) ([3]; category from zeta potential)	Zeta Pot. / mV ([3]; mean, Std Zeta in next column) [mV]	Zeta Pot. / mV ([3]; mean, Std in separate column) [mV]	Zeta-pot. / mV [3] [mV]	Log Count Rate [4, 6]	Log Count Rate ([4]; Fig S8 panels B, D)	Count Rate [4, 7]	Zeta Count Rate Category [4, 8]	Zeta Count Rate / kcps [4, 11] [kcps]	Conversion Rate / % ( from sieste 2021 or Schilling2019) [2] [%]	Zeta Count Rate Category ([4]; category 1/0, no key printed)	Zeta Count Rate / kcps [4, 12] [kcps]	also measured
KIKQIINMWQ [JG2]	94.17	94.17	1 (+1 = if > 4 mV)	1 (+1 = if > 4 mV)	15.37	15.37	15.37	2.789	2.789	615.53	1	615.5	–	–	–	Conversion Rate / % ( from sieste 2021 or Schilling2019) [2, 5]: 86%; Zeta Pot. / mV [3]: 15.37 mV; Zeta category ( +1 = if > 4 mV;-1 = if < -4 mV; 0 = -4mV to 4 mV) ([3]; FigS26): 1 (+1 = if > 4 mV); Zeta Count Rate Category ([4]; category 1 / 0, no key given): 1; Zeta Count Rate / kcps [4, 9]: 615.5 kcps; Zeta Count Rate / kcps [4, 10]: 615.5 kcps; Zeta Count Rate Category ([4]; key not given): 1
CKIKIQINM [MG2]	79	79	1 (+1 = if > 4 mV)	1 (+1 = if > 4 mV)	16.83	16.83	16.83	–	–	–	1	4228	72	1	4228	–
CKFKFQF [BL4]	96.11	96.11	1 (+1 = if > 4 mV)	1 (+1 = if > 4 mV)	19.73	19.73	19.73	3.725	3.725	5303.37	1	5303	95	1	5303	–
KIKIQINMWQ [JG1]	95.68	95.68	1 (+1 = if > 4 mV)	1 (+1 = if > 4 mV)	14.87	14.87	14.87	–	–	–	1	2196	93	1	2196	Zeta category ( +1 = if > 4 mV;-1 = if < -4 mV; 0 = -4mV to 4 mV) ([3]; FigS26): 1 (+1 = if > 4 mV)
KFKFQF [JJA6]	51.79	51.79	-1 (-1 = if < -4 mV)	-1 (-1 = if < -4 mV)	-11.03	-11.03	-11.03	–	–	–	1	183.4	83	1	183.4	–
CKAKAQANM [BL9]	57.73	57.73	-1 (-1 = if < -4 mV)	-1 (-1 = if < -4 mV)	-7.773	-7.773	-7.773	–	–	–	1	207.3	38	1	207.3	–
KFKFQFNMWQ [JG4]	98.32	98.32	1 (+1 = if > 4 mV)	1 (+1 = if > 4 mV)	25.4	25.4	25.4	2.866	2.866	734.63	1	734.6	94	1	734.6	Conversion Rate / % ( from sieste 2021 or Schilling2019) ([2]; literature value): 94%; Zeta Pot. / mV ([3]; mean, Std Zeta in separate column): 25.4 mV; Zeta Count Rate Category ([4]; category from count rate, key not given): 1; Zeta Count Rate / kcps [4, 10]: 734.6 kcps
CKFKFQFNM [BL3]	99.03	99.03	1 (+1 = if > 4 mV)	1 (+1 = if > 4 mV)	15.13	15.13	15.13	3.347	3.347	2223.63	1	2224	88	1	2224	–
CSISIQI [TM141]	–	76.63	-1 (-1 = if < -4 mV)	–	-25.93	–	-25.93	4.01	4.01	10241.1	–	10241.1	82	1	–	–
KIKQII [msis21]	19.94	19.94	-1 (-1 = if < -4 mV)	-1 (-1 = if < -4 mV)	-12.67	-12.67	-12.67	–	–	–	1	122	–	–	–	Conversion Rate / % ( from sieste 2021 or Schilling2019) [2, 5]: 6%; Zeta Pot. / mV [3]: -12.67 mV; Zeta Count Rate Category ([4]; category 1 / 0, no key given): 1; Zeta Count Rate / kcps [4, 9]: 122 kcps; Zeta Count Rate / kcps [4, 10]: 122 kcps; Zeta Count Rate Category ([4]; key not given): 1
CKAKAQANMWQ [BL8]	92.9	92.9	0 (0 = -4mV to 4 mV)	0 (0 = -4mV to 4 mV)	0.7373	0.7373	0.7373	0.9528	0.9528	8.97	0	8.967	92	0	8.967	–
KFKFQFNM [BL6a]	98.53	98.53	1 (+1 = if > 4 mV)	1 (+1 = if > 4 mV)	13.9	13.9	13.9	–	–	–	1	131.8	91	1	131.8	–
